Values quoted from earlier work as cited in PMC7123690 (HCV: The Journey from Discovery to a Cure, 2018).
Read-outs that look alike come from different tables or passages of the source.

What was measured:
[1] = test system: GT-1 and GT-4 replication; conditions: GT-1 and GT-4 replicons
[2] = dog LM
[3] = rat, dog, and cynomolgus monkey plasma
[4] = not given; remark: listed apart in the source
HCV GT-1b replicon = conditions: read-out: EC50 GT-1b replicon
CYP 2C9 = conditions: recombinant CYP 2C9
[5] = HLM
HCV = conditions: combined with IFN-α, ribavirin (52), 2 and 3
[6] = test system: individual recombinant CYP enzymes
[7] = rat
isolated rabbit hearts = conditions: for effects on HR and SNRT: 60 min perfusion
CYP 1A2 = conditions: recombinant CYP 1A2
[8] = dog
[9] = RLM
HCV GT-1 = HCV GT-1 patients
[10] = P-gp knockout mice
[11] = cynomolgus monkey LMs
[12] = not given; remark: listed apart in the source
CYP 2C19 = conditions: recombinant CYP 2C19
CYP 2D6 = conditions: recombinant CYP 2D6
HCV NS3/4A GT-1a enzyme = conditions: read-out: IC50 GT-1a enzyme
[13] = test system: bovine viral diarrhea virus
[14] = dog; remark: listed apart in the source
[15] = anesthetized rabbits
[16] = not given; remark: listed apart in the source
[17] = test system: cardiac ion channel and receptor screens
[18] = not given; remark: listed apart in the source
[19] = test system: canine parainfluenza virus
GT-1 HCV = conditions: 120 mg dose, 12-h post-dose, GT-1 HCV patients
[20] = 60-min perfusion protocol, 10 μM, similar to vehicle control

Q: Which EC50 [1] does the source give for C=C[C@@H]1C[C@]1(NC(=O)[C@@H]1C[C@@H](Oc2ncc(OC)c3ccc(Cl)cc23)CN1C(=O)[C@@H](NC(=O)OC(C)(C)C)C(C)(C)C)C(=O)NS(=O)(=O)C1CC1 [Compound 1, Asunaprevir] here?
A: < 0.005 µM

Q: What about the plasma protein binding (human plasma) of the same compound?
A: 98.8%

Q: What about the “turnover in LMs” value [2] of the same compound?
A: 4.7 pmol/min/mg

Q: And the plasma protein binding [3]?
A: 97.2–98.8%

Q: And the IC50 (CYP 3A4; CYP 3A4, substrate probe 7-benzyloxy-trifluoromethylcoumarin (BFC))?
A: 29 µM

Q: What about the IC50 (CYP 3A4; CYP 3A4, substrate probe benzyloxyresorufin (BZR)) of the same compound?
A: 8 µM

Q: What about the IC50 (CYP 3A4; CYP 3A4, substrate probe midazolam) of the same compound?
A: 27 µM

Q: What about the “adverse events (AEs)” value ([4]; NHVs, single doses 10-1,200 mg oral suspension) of the same compound?
A: generally mild to moderate and comparable to the placebo controls

Q: And the cardiac safety analysis ([4]; short duration SAD study)?
A: no evidence of an increased risk of adverse cardiac events

Q: What about the EC50 (HCV GT-1b replicon) of the same compound?
A: 0.006 µM

Q: And the IC50 (CYP 2C9)?
A: > 40 µM

Q: And the “turnover in LMs” value [5]?
A: 5.8 ± 1.8

Q: What about the “activity in combination studies” value (HCV) of the same compound?
A: additive or synergistic activity

Q: And the “metabolic turnover by recombinant CYP enzymes” value [6]?
A: significant metabolic turnover only by CYP 3A4

Q: What about the “direct excretion into the bile” value [7] of the same compound?
A: 9 % of the dose

Q: What about the “liver level 24-h post-dose” value ([7]; oral) of the same compound?
A: 15.2 µM

Q: And the “maximal increase in SNRT” value (isolated rabbit hearts; [20])?
A: 14%

Q: And the “maximal reduction of heart rate” value (isolated rabbit hearts; [20])?
A: 10%

Q: And the “% HR change” value (isolated rabbit hearts; perfusion concentration 10 μM)?
A: −4%

Q: And the “% SNRT change” value (isolated rabbit hearts; perfusion concentration 10 μM)?
A: 5%

Q: What about the IC50 (CYP 1A2) of the same compound?
A: > 40 µM

Q: What about the “direct excretion into the bile” value [8] of the same compound?
A: 22 % of the dose

Q: What about the “turnover in LMs” value [9] of the same compound?
A: 4.9 pmol/min/mg

Q: And the “mean plasma HCV RNA decline” value (HCV GT-1; single 50 mg dose)?
A: 0.64 log10 IU/mL

Q: And the “mean plasma HCV RNA decline” value (HCV GT-1; single 200 mg dose)?
A: 2.26 log10 IU/mL

Q: And the “mean plasma HCV RNA decline” value (HCV GT-1; single 600 mg dose)?
A: 2.87 log10 IU/mL

Q: And the oral bioavailability [10]?
A: > 100%

Q: What about the “turnover in LMs” value [11] of the same compound?
A: 50 ± 22 pmol/min/mg

Q: And the “permeability in PAMPA” value ([12]; pH = 5.5)?
A: > 47.3 ×10⁻⁶ cm/s

Q: What about the “permeability in PAMPA” value ([12]; pH = 7.4) of the same compound?
A: > 49.2 ×10⁻⁶ cm/s

Q: What about the IC50 (CYP 2C19) of the same compound?
A: > 40 µM

Q: And the IC50 (CYP 2D6)?
A: > 40 µM

Q: What about the IC50 (HCV NS3/4A GT-1a enzyme) of the same compound?
A: 0.001 µM

Q: For C=C[C@@H]1C[C@]1(NC(=O)[C@@H]1C[C@@H](Oc2nccc3cc(OC)ccc23)CN1C(=O)[C@@H](NC(=O)OC(C)(C)C)C(C)(C)C)C(=O)NS(=O)(=O)C1CC1 [Compound 30], which “affinity for plasma proteins” value (human) is on record?
A: 99.1%

Q: What about the “activity in cell culture replication assay” value [13] of the same compound?
A: inactive

Q: And the “affinity for plasma proteins” value [14]?
A: 98.2%

Q: And the “decline in HR” value ([15]; IV 1, 3 and 10 mpk each infused over 5 min)?
A: 32 bpm

Q: What about the “reduction in blood pressure from baseline” value ([15]; not drug related, also seen in vehicle controls) of the same compound?
A: 14–23 mmHg

Q: What about the EC50 (HCV GT-1b replicon) of the same compound?
A: 0.012 µM

Q: What about the observed cardiovascular effects ([16]; conscious telemetrized dogs, two 15 mpk doses) of the same compound?
A: a reduction in heart rate and prolongation of the PR interval

Q: And the “plasma exposure at which CV effects occurred” value ([16]; estimated from non-telemeterized animals)?
A: approximately 12 μM

Q: What about the “activity in cell culture replication assay” value (HIV-1) of the same compound?
A: inactive

Q: And the oral bioavailability [7]?
A: 18%

Q: And the “plasma t 1/2” value [7]?
A: 4.4 h

Q: What about the “plasma level 24-h post-dose” value ([7]; oral 20 mpk) of the same compound?
A: 8 nM

Q: And the “decline in HR” value (isolated rabbit hearts; 3 μM, ~12 min perfusion)?
A: −15 bpm

Q: And the “decline in HR” value (isolated rabbit hearts; 10 μM, ~12 min perfusion)?
A: −23 bpm

Q: What about the “effects on atrioventricular conduction time or QRS interval” value (isolated rabbit hearts; 0.3-10 μM) of the same compound?
A: no effects

Q: What about the “increase in SNRT” value (isolated rabbit hearts; 3 and 10 μM, ~12 min perfusion) of the same compound?
A: ≥ 425 ms

Q: And the “effects on HR and SNRT” value (isolated rabbit hearts; 0.1 μM)?
A: absent

Q: What about the “effects on HR and SNRT” value (isolated rabbit hearts; 0.3 μM) of the same compound?
A: attenuated

Q: What about the “effects on HR and SNRT” value (isolated rabbit hearts; 1 μM) of the same compound?
A: effects on HR and SNRT were observed

Q: And the “% HR change” value (isolated rabbit hearts; perfusion concentration 10 μM)?
A: −25%

Q: And the oral bioavailability ([8]; PO, 1 mpk)?
A: 23%

Q: And the “outcome of cardiac ion channel and receptor screens” value [17]?
A: failed to identify a biochemical target

Q: What about the “terminal t 1/2” value ([18]; NHVs, single oral doses 10-120 mg) of the same compound?
A: 4 to 8 h

Q: And the “effects on cardiac function (electrocardiographic changes)” value ([18]; one NHV and one HCV-infected patient, 120 mg dose)?
A: transient mild bradycardia, PR interval prolongation, and junctional rhythm disturbances

Q: And the “activity in cell culture replication assay” value [19]?
A: inactive

Q: And the “mean decline in viral load” value (GT-1 HCV)?
A: 1.8 log10 IU/mL
